In patent publication US20250171414A1, “COMPOUND SERVING AS MASP-2 INHIBITOR, PHARMACEUTICAL COMPOSITION, PREPARATION METHOD THEREFOR, AND USE THEREOF” (WUHAN CREATERNA SCIENCE AND TECHNOLOGY CO., LTD., priority 2022, published 2025) one finds IC50 data, which are given here for 24 compounds.

The assay has as its system lectin pathway (MBL) in human serum. As to the kind of experiment: Inhibition of activity of lectin pathway (MBL) in human serum (WIESLAB Complement System MBL Pathway kit). Format: biochemical. The note with it: 1% human serum. The method, then:
The inhibition of the activity of the lectin pathway (MBL) in human serum by compounds was detected using a WIESLAB® Complement System MBL Pathway kit (SVAR, COMPLMP320). Test compounds were each serially diluted in a buffer (Diluent MP), and 1% human serum was incubated with the diluted compound solution for 15 min at room temperature. 100 μL of the mixture was added to a microplate and incubated at 37° C. for 60 min. The liquid in the wells was discarded, and the microplate was washed three times with a washing solution. A Conjugate antibody solution was added at 100 μL/well, and the resulting mixture was incubated for 30 min at 25° C. The liquid in the wells was discarded, and the microplate was washed three times with a washing solution; a substrate solution was added at 100 μL/well, and the resulting mixture was incubated for 30 min at 25° C.; the terminator was added at 50 μL/well, and the absorbance at 405 nm was detected within 30 min by using a microplate reader.

On to `Nc1ccc2c(n1)CC[C@H]2NC(=O)[C@@H]1C[C@@H]2C[C@@H]2N1C(=O)[C@H]1C[C@H](Cc2ccc(F)cc2)CN1` [Compound L104-IS-02, (1S,3S,5S)—N—((R)-2-amino-6,7-dihydro-5H-cyclopenta [b]pyridin-5-yl)-2-((2R,4S)-4-(4-fluorobenzyl)pyrrolidine-2-carbonyl)-2-azabicyclo[3.1.0]hexane-3-carboxamide], for which it took 0.97 nM to reach half-maximal inhibition (IC50).

For `C[C@H](NC(=O)[C@@H]1C=C(c2ccc(F)c(C(F)F)c2)CCN1)C(=O)N[C@@H]1CCc2nc(N)ccc21` [Compound L078-IS-02, (S)—N—((S)-1-(((R)-2-amino-6,7-dihydro-5H-cyclopenta[b]pyridin-5-yl)amino)-1-oxopropan-2-yl)-4-(3-(difluoromethyl)-4-fluorophenyl)-1,2,5,6-tetrahydropyridine-2-carboxamide], the 50% inhibitory concentration (IC50) was 16.3 nM.

For `C[C@H](NC(=O)[C@H]1CN(c2cccc3ccccc23)CCN1)C(=O)NC1CCc2nc(N)ccc21` (stereo partly drawn) [Compound L025], the IC50 amounted to 5.52 nM.

As to `COc1cc2ccccc2cc1C[C@@H]1CN[C@@H](C(=O)N[C@@H](C)C(=O)NC2CCc3nc(N)ccc32)C1` (stereo partly drawn) [Compound L015, (2R,4S)—N-((2S)-1-((2-amino-6,7-dihydro-5H-cyclopenta[b]pyridin-5-yl)amino)-1-oxopropan-2-yl)-4-((3-methoxynaphthalen-2-yl)methyl) pyrrolidine-2-carboxamide], it took 1.99 nM to reach half-maximal inhibition (IC50).

Take `C[C@H](NC(=O)[C@@H]1C=C(c2ccc(F)cc2C(F)(F)F)CCN1)C(=O)N[C@@H]1CCc2nc(N)ccc21` [Compound L073-IS-02, (S)-N-((S)-1-(((R)-2-amino-6,7-dihydro-5H-cyclopenta[b]pyridin-5-yl)amino)-1-oxopropan-2-yl)-4-(4-fluoro-2-(trifluoromethyl)phenyl)-1,2,5,6-tetrahydropyridine-2-carboxamide]: half-maximal inhibition (IC50) required 4.25 nM.

For the compound `CC(c1ccccc1)[C@H]1CN[C@@H](C(=O)N[C@@H](C)C(=O)NC2CCc3nc(N)ccc32)C1` (stereo partly drawn) [Compound L009, (2R,4S)—N-((2S)-1-((2-amino-6,7-dihydro-5H-cyclopenta[b]pyridin-5-yl)amino)-1-oxopropan-2-yl)-4-(1-phenylethyl) pyrrolidine-2-carboxamide], the midpoint of inhibition, the IC50, lay at 7.08 nM.

Turning to `Cc1cc(C[C@@H]2CN[C@@H](C(=O)N[C@@H](C)C(=O)NC3CCc4nc(N)ccc43)C2)ccn1` (stereo partly drawn) [Compound L011, (2R,4S)—N-((2S)-1-((2-amino-6,7-dihydro-5H-cyclopenta[b]pyridin-5-yl)amino)-1-oxopropan-2-yl)-4-((2-methylpyridin-4-yl)methyl) pyrrolidine-2-carboxamide], it took 7.55 nM to reach half-maximal inhibition (IC50).

Regarding `C[C@H](NC(=O)[C@H]1C[C@@H](c2ccc(F)c(F)c2)CCN1)C(=O)NC1CCc2nc(N)ccc21` (stereo partly drawn) [Compound L045-IS-02, (2R,4S)-N-((2S)-1-((2-amino-6,7-dihydro-5H-cyclopenta[b]pyridin-5-yl)amino)-1-oxopropan-2-yl)-4-(3,4-difluorophenyl)piperidine-2-carboxamide], the IC50 turned out to be 4.11 nM.

Regarding `C[C@H](NC(=O)[C@H]1C[C@@H](c2cccc(C(F)(F)F)c2)CCN1)C(=O)NC1CCc2nc(N)ccc21` (stereo partly drawn) [Compound L044-IS-02, (2R,4S)-N-((2S)-1-((2-amino-6,7-dihydro-5H-cyclopenta[b]pyridin-5-yl)amino)-1-oxopropan-2-yl)-4-(3-(trifluoromethyl)phenyl)piperidine-2-carboxamide], the IC50 worked out at 1.83 nM.

`Nc1ccc2c(n1)CCC2NC(=O)[C@@H]1CCCN1C(=O)[C@H]1C[C@H](Cc2ccc(F)cc2)CN1` (stereo partly drawn) [Compound L031, (2S)—N-(2-amino-6,7-dihydro-5H-cyclopenta[b]pyridin-5-yl)-1-((2R,4S)-4-(4-fluorobenzyl)pyrrolidine-2-carbonyl) pyrrolidine-2-carboxamide]: the half-inhibitory concentration (IC50) worked out at 4.49 nM.

In turn, `Cc1cc(F)ccc1C1=C[C@@H](C(=O)N[C@@H](C)C(=O)N[C@@H]2CCc3nc(N)ccc32)NCC1` [Compound L074-IS-02, (S)-N-((S)-1-(((R)-2-amino-6,7-dihydro-5H-cyclopenta[b]pyridin-5-yl)amino)-1-oxopropan-2-yl)-4-(4-fluoro-2-methylphenyl)-1,2,5,6-tetrahydropyridine-2-carboxamide] showed an IC50 of 2.79 nM.

On to `C[C@H](NC(=O)[C@@H]1C=C(c2ccc(F)cc2Cl)CCN1)C(=O)N[C@@H]1CCc2nc(N)ccc21` [Compound L075-IS-02, (S)-N-((S)-1-(((R)-2-amino-6,7-dihydro-5H-cyclopenta[b]pyridin-5-yl)amino)-1-oxopropan-2-yl)-4-(2-chloro-4-fluorophenyl)-1,2,5,6-tetrahydropyridine-2-carboxamide], for which the IC50 is 4.89 nM.

`C[C@H](NC(=O)[C@H]1C[C@H](Cc2nc3cc(Cl)ccc3s2)CN1)C(=O)NC1CCc2nc(N)ccc21` (stereo partly drawn) [Compound L013, (2R,4R)—N-((2S)-1-((2-amino-6,7-dihydro-5H-cyclopenta[b]pyridin-5-yl)amino)-1-oxopropan-2-yl)-4-((5-chlorobenzo[d]thiazol-2-yl)methyl) pyrrolidine-2-carboxamide] gave an IC50 of 6.62 nM.

As for `C[C@H](NC(=O)[C@H]1C[C@@H](c2ccccc2)CCN1)C(=O)NC1CCc2nc(N)ccc21` (stereo partly drawn) [Compound L021-IS-01, (2R,4S)—N-((2S)-1-((2-amino-6,7-dihydro-5H-cyclopenta[b]pyridin-5-yl)amino)-1-oxopropan-2-yl)-4-phenylpiperidine-2-carboxamide], the IC50 came to 0.26 nM.

The compound `C[C@H](NC(=O)C1CC(c2ccccc2)CCN1)C(=O)NC1CCc2nc(N)ccc21` (stereo partly drawn) [Compound L021, N-((2S)-1-((2-amino-6,7-dihydro-5H-cyclopenta[b]pyridin-5-yl)amino)-1-oxopropan-2-yl)-4-phenylpiperidine-2-carboxamide] had an IC50 of 3.75 nM.

As for `Nc1ccc2c(n1)CC[C@H]2NC(=O)[C@H]1[C@H]2C[C@H]2CN1C(=O)[C@H]1C[C@H](Cc2ccc(F)cc2)CN1` [Compound L055-IS-02, (1S,2R,5R)—N—((R)-2-amino-6,7-dihydro-5H-cyclopenta [b]pyridin-5-yl)-3-((2R,4S)-4-(4-fluorobenzyl)pyrrolidine-2-carbonyl)-3-azabicyclo[3.1.0]hexane-2-carboxamide], half-maximal inhibition (IC50) was put at 7 nM.

In turn, `C[C@H](NC(=O)c1cc(-c2ccccc2)c[nH]1)C(=O)N[C@@H]1CCc2nc(N)ccc21` [Compound L020-IS-01, N—((S)-1-(((R)-2-amino-6,7-dihydro-5H-cyclopenta[b]pyridin-5-yl)amino)-1-oxopropan-2-yl)-4-phenyl-1H-pyrrole-2-carboxamide] gave an IC50 of 15 nM.

`C[C@H](NC(=O)[C@H]1C[C@H](C2(c3ccccc3)CC2)CN1)C(=O)NC1CCc2nc(N)ccc21` (stereo partly drawn) [Compound L017, (2R,4R)—N-((2S)-1-((2-amino-6,7-dihydro-5H-cyclopenta[b]pyridin-5-yl)amino)-1-oxopropan-2-yl)-4-(1-phenylcyclopropyl) pyrrolidine-2-carboxamide] registered an IC50 of 6.96 nM.

For `Cc1ccc(C[C@@H]2CN[C@@H](C(=O)N[C@@H](C)C(=O)NC3CCc4nc(N)ccc43)C2)cc1` (stereo partly drawn) [Compound L004, (2R,4S)—N-((2S)-1-((2-amino-6,7-dihydro-5H-cyclopenta[b]pyridin-5-yl)amino)-1-oxopropan-2-yl)-4-(4-methylbenzyl) pyrrolidine-2-carboxamide], the concentration for half-maximal inhibition (IC50) came to 12.8 nM.

`C[C@H](NC(=O)[C@H]1C[C@@H](c2ccc(F)cc2F)CCN1)C(=O)NC1CCc2nc(N)ccc21` (stereo partly drawn) [Compound L047-IS-02, (2R,4S)-N-((2S)-1-((2-amino-6,7-dihydro-5H-cyclopenta[b]pyridin-5-yl)amino)-1-oxopropan-2-yl)-4-(2,4-difluorophenyl)piperidine-2-carboxamide] gave an IC50 of 3.06 nM.

In turn, `C[C@H](NC(=O)[C@H]1CC(c2cccc(F)c2)CCN1)C(=O)NC1CCc2nc(N)ccc21` (stereo in doubt) [Compound L039-IS-02, (2R,4S)-N-((2S)-1-((2-amino-6,7-dihydro-5H-cyclopenta[b]pyridin-5-yl)amino)-1-oxopropan-2-yl)-4-(3-fluorophenyl)piperidine-2-carboxamide] displayed an IC50 of 2.36 nM.

`C[C@H](NC(=O)[C@@H]1C=C(c2ccc(F)cc2CF)CCN1)C(=O)N[C@@H]1CCc2nc(N)ccc21` [Compound L079-IS-02, (S)—N—((S)-1-(((R)-2-amino-6,7-dihydro-5H-cyclopenta[b]pyridin-5-yl)amino)-1-oxopropan-2-yl)-4-(4-fluoro-2-(fluoromethyl)phenyl)-1,2,5,6-tetrahydropyridine-2-carboxamide] had an IC50 of 2.9 nM.

Compound `C[C@H](NC(=O)[C@@H]1C=C(c2ccc(F)c(C(F)(F)F)c2)CCN1)C(=O)N[C@@H]1CCc2nc(N)ccc21` [Compound L070-IS-02, (S)-N-((S)-1-(((R)-2-amino-6,7-dihydro-5H-cyclopenta[b]pyridin-5-yl)amino)-1-oxopropan-2-yl)-4-(4-fluoro-3-(trifluoromethyl)phenyl)-1,2,5,6-tetrahydropyridine-2-carboxamide] registered an IC50 of 17.6 nM.

As for `C[C@H](NC(=O)[C@@H]1C=C(c2cccc(Cl)c2)CCN1)C(=O)N[C@@H]1CCc2nc(N)ccc21` [Compound L081-IS-02, (S)—N—((S)-1-(((R)-2-amino-6,7-dihydro-5H-cyclopenta[b]pyridin-5-yl)amino)-1-oxopropan-2-yl)-4-(3-chlorophenyl)-1,2,5,6-tetrahydropyridine-2-carboxamide], the concentration for half-maximal inhibition (IC50) amounted to 7.41 nM.

For orientation: IC50 means the midpoint of a concentration-inhibition curve. A low value points to inhibition by little substance.
